# Like-named read-outs stand apart in the source and are kept apart here. Where a SMILES comes first, the peptide text is derived from it. [ ]: non-standard residue; d: D form. The star is where a group is joined. Fumaryl(OMe) = COC(=O)/C=C/C(=O)*; Dap = NC[C@H](N)C(=O)O
# Tests used:
# Type in all cases: cell-based, Candida albicans
# C. albicans isolate NF1 = conditions: YNB-SG medium
# From the text: (§1) The in vitro growth inhibitory activity of antifungals was quantified by determination of minimal inhibitory concentration (MIC) values by the serial twofold dilution method, using the 96-well microtiter plates in three media: buffered RPMI-1640, YNB-AS, and YNB-SG. Conditions of the RPMI-1640-based assay were the same as outlined in the CLSI recommendations ([Clinical Laboratory Standards Institute, 2008]), except for the end-point readout that was done by spectrophotometric determination of cell density at 531 nm. Turbidity in individual wells was measured with a microplate reader (Victor^3; Perkin Elmer). MIC was defined as the lowest drug concentration that gave at least an 80% decrease in turbidity, relative to that of the drug-free growth control.
# (§2) The 96-well microtiter plates were also used for determination of in vitro growth inhibitory activity in YPD and YNB-based media. Individual wells were inoculated with 5 × 10^3 cfu mL^-1 of C. albicans cells from the overnight culture in YPD medium. The inoculated plates were incubated 37°C for 24 h and then turbidity was measured with a microplate reader at 531 nm, as described above for the RPMI-1640-based assay.
# (§3) Candida albicans cells, apparently resistant to FMDP-peptides, were isolated from the individual colonies formed on the surface of YNB-SG agar medium containing FMDP-peptide, 10 μg mL^-1 or within the growth inhibitory zones around the paper discs saturated with 10 μL of the FMDP-peptide solution, 1 mg mL^-1. In both versions, the agar surface was inoculated with 10^5 cells from the overnight culture in YPD medium, washed three times with sterile water, suspended in 0.2 mL of sterile water and the cell suspension was spread on the whole surface with a sterile glass rod. Plates were incubated for 48 h at 30°C and isolated colonies were picked with a platinum loop.
# (§4) Growth inhibitory activity of FMDP-oligopeptides against C. albicans SC 5314 was also determined by the disc diffusion method. […] Cells grown in these colonies were collected, re-grown in YNB-AS and tested for sensitivity to FMDP-oligopeptides.
# C. albicans isolate LNF1 = conditions: YNB-SG medium
# From the text: as §1, §2, §3, §4
# C. albicans isolate LNF2 = conditions: YNB-SG medium
# From the text: as §1, §2, §3, §4
# C. albicans isolate LNF3 = conditions: YNB-SG medium
# From the text: as §1, §2, §3, §4
# C. albicans isolate NF2 = conditions: YNB-SG medium
# From the text: as §1, §2, §3, §4
# C. albicans isolate NF3 = conditions: YNB-SG medium
# From the text: as §1, §2, §3, §4
# C. albicans opt5Δ [1] = assay: Initial peptide uptake rate; conditions: 50 mM potassium phosphate buffer (pH 5.0 or 6.5) + 1% glucose, 30°C, 100 μM peptide, TNBS A420, slope 0- to 10-min
# Experimental: (§5) Yeast cells grown exponentially in the YNB-SG medium were harvested by centrifugation (3000 ×g, 5 min), washed with 50 mM potassium phosphate buffer (pH 5.0 or 6.5), and suspended in the same buffer containing 1% glucose, to a final cell density corresponding to A660 ≅ 1.0. The cell suspension was incubated at 30°C. After 10 min, an oligopeptide solution was added, to give a final concentration of 100 μM. At that moment and at 5 min intervals thereafter, 2 mL samples of the cell suspension were withdrawn, immediately filtered through the Whatman GF/A filters and the filtrates were used to determine the residual peptide concentration. Then, the 1 mL portions of the filtrates were taken and combined with 1.25 mL aliquots of a solution containing 4% Na2B4O7 × 10 H2O and 0.8 mg mL^-1 of 2,4,6-trinitrobenzenesulfonate. The reaction was carried out at 37°C for 30 min. The A420 values were measured and the peptide concentration was read from the appropriate standard curve. Data were plotted as nanomoles of an oligopeptide, taken up by 1 mg (dry weight) of cells versus time. The initial uptake velocities were determined from the slopes of the linear part of the curves, in the 0- to 10-min region.
# C. albicans opt2Δ opt3Δ [2] = assay: Initial peptide uptake rate; conditions: 50 mM potassium phosphate buffer (pH 5.0 or 6.5) + 1% glucose, 30°C, 100 μM peptide, TNBS A420, slope 0- to 10-min
# Experimental: as §5
# C. albicans opt5Δ [3] = conditions: turbidity 531 nm, at least 80% decrease
# Experimental: (§6) Strains were grown at 30°C in YPD medium (1% yeast extract, 2% peptone, and 2% glucose) and stored on YPD plates containing 2% agar. Susceptibility testing was performed in YPD and other three media: (a) RPMI-1640 w/o sodium bicarbonate, with L-glutamine + 2% glucose + 3.45% MOPS, pH adjusted to 7.0; (b) YNB-AS—Yeast Nitrogen Base w/o amino acids (contains ammonium sulfate 5 g L^-1) + 2% glucose; (c) YNB-SG—Yeast Nitrogen Base w/o amino acids and ammonium sulfate + 2% glucose + 0.2 g L^-1 sodium glutamate. In their solid version, used for the mutant generation and isolation, YNB-AS and YNB-SG contained 2% agar.
# as §1, §2
# C. albicans ptr2Δ ptr22Δ = conditions: turbidity 531 nm, at least 80% decrease
# Experimental: as §6, §1, §2
# C. albicans opt2Δ opt3Δ [4] = conditions: turbidity 531 nm, at least 80% decrease
# Experimental: as §6, §1, §2
# C. albicans opt1Δ = conditions: turbidity 531 nm, at least 80% decrease
# Experimental: as §6, §1, §2
# C. albicans opt4Δ = conditions: turbidity 531 nm, at least 80% decrease
# Experimental: as §6, §1, §2
# [5] = system: C. albicans opt1–opt5Δ ptr2Δ ptr22Δ; conditions: turbidity 531 nm, at least 80% decrease
# Experimental: as §6, §1, §2
# C. albicans opt1–opt5Δ = conditions: turbidity 531 nm, at least 80% decrease
# Experimental: as §6, §1, §2
# C. albicans SC5314 = conditions: for Increase of MICs in presence of Ala-Ala-Ala-Ala: YNB-SG + Ala-Ala-Ala-Ala 1 g L^-1; for Effect of supplementation with Ala-Ala or Ala-Ala-Ala on activity: YNB-based media + Ala-Ala or Ala-Ala-Ala, 1 g L^-1, 'similar effect' = complete elimination of activity as with Bacto Peptone; for MIC in YNB-AS, times higher than in YNB-SG: wild type SC5314
# Experimental: as §6, §1, §2
# [6] = RPMI-1640 medium, MOPS pH 7.0, CLSI conditions
# [7] = SC 5314, RPMI-1640 medium, MOPS pH 7.0, CLSI conditions, turbidity 531 nm, at least 80% decrease
# [8] = SC 5314, YNB + L-Gln (0.3 g L^-1) pH 5.0
# [9] = SC 5314, YNB + L-Gln (0.3 g L^-1) pH 7.0
# [10] = SC 5314, YNB + amino acid mixture (composition as in RPMI-1640)
# [11] = SC 5314, YNB-AS medium, 5 × 10^3 cfu mL^-1, 37°C, 24 h, turbidity 531 nm, at least 80% decrease
# [12] = SC 5314, YNB-SG medium, 5 × 10^3 cfu mL^-1, 37°C, 24 h, turbidity 531 nm, at least 80% decrease
# [13] = SC 5314, growth medium YNB-SG (Table 6)
SMILES,MIC (C. albicans isolate NF1),MIC (C. albicans isolate LNF1),MIC (C. albicans isolate LNF2),MIC (C. albicans isolate LNF3),MIC (C. albicans isolate NF2),MIC (C. albicans isolate NF3),Uptake rate ± SD (C. albicans opt5Δ [1]),Uptake rate ± SD (C. albicans opt2Δ opt3Δ [2]),MIC (C. albicans opt5Δ [3]; [6]),"MIC (C. albicans opt5Δ [3]; YNB-AS medium, 37°C, 24 h)","MIC (C. albicans opt5Δ [3]; YNB-SG medium, 37°C, 24 h)",MIC (C. albicans ptr2Δ ptr22Δ; [6]),"MIC (C. albicans ptr2Δ ptr22Δ; YNB-AS medium, 37°C, 24 h)","MIC (C. albicans ptr2Δ ptr22Δ; YNB-SG medium, 37°C, 24 h)",MIC (C. albicans opt2Δ opt3Δ [4]; [6]),"MIC (C. albicans opt2Δ opt3Δ [4]; YNB-SG medium, 37°C, 24 h)",MIC (C. albicans opt1Δ; [6]),"MIC (C. albicans opt1Δ; YNB-AS medium, 37°C, 24 h)","MIC (C. albicans opt1Δ; YNB-SG medium, 37°C, 24 h)",MIC (C. albicans opt4Δ; [6]),other results
"COC(=O)/C=C/C(=O)NC[C@H](NC(=O)[C@H](CCSC)NC(=O)[C@@H](NC(=O)[C@@H]1CCCN1C(=O)[C@H](CC(C)C)NC(=O)[C@@H](N)CCCCN)C(C)C)C(=O)O [Peptide F6, Lys-Leu-Pro-Val-Met-FMDP] (H-KLPVM[Dap](Fumaryl(OMe))-OH; N-terminus and C-terminus assumed)",4 µg/mL,4 µg/mL,8 µg/mL,4 µg/mL,4 µg/mL,4 µg/mL,2.03 ± 0.15 nmol min^-1 (mg dry weight)^-1,0.56 ± 0.09 nmol min^-1 (mg dry weight)^-1,>128 µg/mL,8 µg/mL,4 µg/mL,>128 µg/mL,4 µg/mL,0.5 µg/mL,>128 µg/mL,32 µg/mL,>128 µg/mL,8 µg/mL,4 µg/mL,>128 µg/mL,"MIC (C. albicans opt2Δ opt3Δ [4]; YNB-AS medium, 37°C, 24 h): 32 µg/mL; MIC (C. albicans opt4Δ; YNB-AS medium, 37°C, 24 h): 8 µg/mL; MIC (C. albicans opt4Δ; YNB-SG medium, 37°C, 24 h): 8 µg/mL; MIC [5, 6]: >128 µg/mL; MIC ([5]; YNB-AS medium, 37°C, 24 h): >128 µg/mL; MIC ([5]; YNB-SG medium, 37°C, 24 h): 64 µg/mL; MIC (C. albicans opt1–opt5Δ; [6]): >128 µg/mL; MIC (C. albicans opt1–opt5Δ; YNB-AS medium, 37°C, 24 h): >128 µg/mL; MIC (C. albicans opt1–opt5Δ; YNB-SG medium, 37°C, 24 h): 64 µg/mL; MIC (C. albicans SC5314; [7]): >128 µg/mL; MIC (C. albicans SC5314; [8]): 4.0 µg/mL; MIC (C. albicans SC5314; [9]): 128 µg/mL; MIC (C. albicans SC5314; [10]): >128 µg/mL; MIC (C. albicans SC5314; [11]): 4 µg/mL; MIC (C. albicans SC5314; SC5314, YNB-SG medium (Table 8)): 4 µg/mL; MIC (C. albicans SC5314; [12]): 0.5 µg/mL; MIC (C. albicans SC5314; [13]): 0.5 µg/mL; Increase of MICs in presence of Ala-Ala-Ala-Ala (C. albicans SC5314): 16- to 64 fold; Effect of supplementation with Ala-Ala or Ala-Ala-Ala on activity (C. albicans SC5314): no effect; MIC in YNB-AS, times higher than in YNB-SG (C. albicans SC5314): 8–16 times"
"COC(=O)/C=C/C(=O)NC[C@H](N)C(=O)N[C@@H](CCCNC(=N)N)C(=O)N[C@@H](CCCCN)C(=O)N[C@@H](CCCCN)C(=O)N[C@@H](Cc1c[nH]c2ccccc12)C(=O)N[C@@H](Cc1ccccc1)C(=O)N[C@@H](Cc1c[nH]c2ccccc12)C(=O)O [Peptide F7, FMDP-Arg-Lys-Lys-Trp-Phe-Trp] (H-[Dap](Fumaryl(OMe))RKKWFW-OH; N-terminus and C-terminus assumed)",16 µg/mL,16 µg/mL,16 µg/mL,16 µg/mL,16 µg/mL,16 µg/mL,1.44 ± 0.10 nmol min^-1 (mg dry weight)^-1,0.46 ± 0.08 nmol min^-1 (mg dry weight)^-1,>128 µg/mL,32 µg/mL,2 µg/mL,>128 µg/mL,16 µg/mL,0.5 µg/mL,>128 µg/mL,32 µg/mL,>128 µg/mL,32 µg/mL,8 µg/mL,>128 µg/mL,"MIC (C. albicans opt4Δ; YNB-AS medium, 37°C, 24 h): 32 µg/mL; MIC (C. albicans opt4Δ; YNB-SG medium, 37°C, 24 h): 16 µg/mL; MIC [5, 6]: >128 µg/mL; MIC ([5]; YNB-AS medium, 37°C, 24 h): >128 µg/mL; MIC ([5]; YNB-SG medium, 37°C, 24 h): 64 µg/mL; MIC (C. albicans opt1–opt5Δ; [6]): >128 µg/mL; MIC (C. albicans opt1–opt5Δ; YNB-AS medium, 37°C, 24 h): >128 µg/mL; MIC (C. albicans opt1–opt5Δ; YNB-SG medium, 37°C, 24 h): 64 µg/mL; MIC (C. albicans SC5314; [7]): >128 µg/mL; MIC (C. albicans SC5314; [8]): 8.0 µg/mL; MIC (C. albicans SC5314; [9]): 64 µg/mL; MIC (C. albicans SC5314; [10]): >128 µg/mL; MIC (C. albicans SC5314; [11]): 16 µg/mL; MIC (C. albicans SC5314; [12]): 0.5 µg/mL; MIC (C. albicans SC5314; [13]): 0.5 µg/mL; Increase of MICs in presence of Ala-Ala-Ala-Ala (C. albicans SC5314): 16- to 64 fold; Effect of supplementation with Ala-Ala or Ala-Ala-Ala on activity (C. albicans SC5314): no effect; MIC in YNB-AS, times higher than in YNB-SG (C. albicans SC5314): 8–16 times"

# Source: article PMC5673977, “Transport Deficiency Is the Molecular Basis of Candida albicans Resistance to Antifungal Oligopeptides” (Frontiers in Microbiology, 2017)
